Reference: patent US20220356174A1, “PYRIDIN-2-ONE COMPOUNDS USEFUL AS SMARCA2 ANTAGONISTS” (Epizyme, Inc., priority 2018, published 2022)

Molecular target: FL-SMARCA4 (Homo sapiens, UniProt P51532)
Assay: SMARCA4 ATPase activity assay (ADP-Glo, chicken mononucleosome substrate)
Details: FL-SMARCA4 IC50

FL-SMARCA4, sequence (P51532 whole entry): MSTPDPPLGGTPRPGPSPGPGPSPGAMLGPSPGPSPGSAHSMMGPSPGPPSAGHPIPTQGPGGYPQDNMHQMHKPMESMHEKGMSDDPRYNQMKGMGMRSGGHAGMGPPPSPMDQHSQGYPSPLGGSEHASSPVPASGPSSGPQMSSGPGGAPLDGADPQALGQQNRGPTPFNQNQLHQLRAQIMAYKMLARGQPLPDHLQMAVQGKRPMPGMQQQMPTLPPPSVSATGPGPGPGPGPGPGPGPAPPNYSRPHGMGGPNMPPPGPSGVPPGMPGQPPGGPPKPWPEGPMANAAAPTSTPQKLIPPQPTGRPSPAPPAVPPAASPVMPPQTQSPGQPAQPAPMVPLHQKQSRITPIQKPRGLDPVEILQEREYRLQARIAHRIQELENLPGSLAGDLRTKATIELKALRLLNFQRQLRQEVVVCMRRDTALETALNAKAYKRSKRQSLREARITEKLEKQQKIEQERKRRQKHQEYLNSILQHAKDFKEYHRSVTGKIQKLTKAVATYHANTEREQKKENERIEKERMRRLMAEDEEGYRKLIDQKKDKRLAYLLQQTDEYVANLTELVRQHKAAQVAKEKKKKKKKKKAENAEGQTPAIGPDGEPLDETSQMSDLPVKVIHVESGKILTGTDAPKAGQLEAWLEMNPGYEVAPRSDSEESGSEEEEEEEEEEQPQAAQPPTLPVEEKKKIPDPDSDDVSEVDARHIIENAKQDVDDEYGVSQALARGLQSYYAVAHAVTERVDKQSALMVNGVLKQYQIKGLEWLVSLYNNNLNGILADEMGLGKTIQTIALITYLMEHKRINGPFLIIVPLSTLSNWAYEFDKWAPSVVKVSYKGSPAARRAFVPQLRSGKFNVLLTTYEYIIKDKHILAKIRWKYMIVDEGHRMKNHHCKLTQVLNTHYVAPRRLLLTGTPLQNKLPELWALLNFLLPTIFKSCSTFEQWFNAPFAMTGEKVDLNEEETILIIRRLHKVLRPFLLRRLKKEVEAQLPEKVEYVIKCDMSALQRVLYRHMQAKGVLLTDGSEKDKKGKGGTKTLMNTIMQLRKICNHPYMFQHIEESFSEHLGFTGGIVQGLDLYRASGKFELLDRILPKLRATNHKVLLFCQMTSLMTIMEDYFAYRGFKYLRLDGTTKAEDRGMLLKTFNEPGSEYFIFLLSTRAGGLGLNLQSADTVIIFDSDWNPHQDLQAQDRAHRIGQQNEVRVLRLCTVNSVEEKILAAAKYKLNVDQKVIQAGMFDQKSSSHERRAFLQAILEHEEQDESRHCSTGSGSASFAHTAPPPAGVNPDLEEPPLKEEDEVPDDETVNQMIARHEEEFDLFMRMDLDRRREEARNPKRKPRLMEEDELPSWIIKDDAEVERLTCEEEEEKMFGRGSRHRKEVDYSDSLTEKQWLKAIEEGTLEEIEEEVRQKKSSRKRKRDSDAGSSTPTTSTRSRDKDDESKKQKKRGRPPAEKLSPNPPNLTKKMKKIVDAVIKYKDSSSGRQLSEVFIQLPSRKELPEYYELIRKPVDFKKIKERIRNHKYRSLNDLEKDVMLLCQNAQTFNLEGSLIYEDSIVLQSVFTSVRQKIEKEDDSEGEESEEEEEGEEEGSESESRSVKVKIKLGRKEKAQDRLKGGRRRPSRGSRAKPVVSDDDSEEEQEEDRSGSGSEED

Compound | IC50 [nM]
O=C(Nc1cc(F)c(=O)n(CC(F)F)c1)c1cc(C#C[C@H]2CCC[C@H](O)C2)c(Cl)s1 [Compound 129d] | 161
Cc1cc(C#Cc2cc(C(=O)Nc3cc(C#N)c(=O)n(CC(F)F)c3)sc2Cl)sn1 [Compound 92d] | 155

Same assay, conditions: FL-SMARCA4 IC>50, Table 3c.2; ATPase assay, enzyme 5 nM, ATP 250 uM, chicken mononucleosome 10 nM, 30 min preincubation

Compound | IC50 [nM]
O=C(Nc1cc(F)c(=O)n(CC(F)F)c1)c1cc(C#Cc2c[nH]cn2)c(Cl)s1 [Compound 113c] | 111
CNC(=O)c1cccc(C#Cc2cc(C(=O)Nc3cc(F)c(=O)n(CC(F)F)c3)sc2Cl)c1 [Compound 86c] | 45.1
Cc1nc(C#Cc2cc(C(=O)Nc3cc(F)c(=O)n(CC(F)F)c3)sc2Cl)cs1 [Compound 61c] | 86.7
O=C(Nc1ccc(=O)n(CC(F)F)c1)c1cc(F)c(Cl)s1 [Compound 45c] | 232
Cc1cnc(C#Cc2cc(C(=O)Nc3cc(F)c(=O)n(CC(F)F)c3)sc2Cl)o1 [Compound 71c] | 304
CN1CCn2cc(C#Cc3cc(C(=O)Nc4cc(F)c(=O)n(CC(F)F)c4)sc3Cl)nc2C1 [Compound 146c] | 15300
CCn1cc(C#Cc2cc(C(=O)Nc3cc(F)c(=O)n(CC(F)F)c3)sc2Cl)cn1 [Compound 54c] | 166
COc1cccc(C#Cc2cc(C(=O)Nc3cc(F)c(=O)n(CC(F)F)c3)sc2Cl)c1 [Compound 42c] | 477
O=C1CC(C#Cc2cc(C(=O)Nc3cc(F)c(=O)n(CC(F)F)c3)sc2Cl)CN1 (stereo not drawn) [Compound 116c] | 548
O=C(Nc1cc(F)c(=O)n(CC(F)F)c1)c1cc(C#CC2CCOCC2)c(Cl)s1 [Compound 22c] | 60.8
NC(=O)Cn1cc(C#Cc2cc(C(=O)Nc3cc(F)c(=O)n(CC(F)F)c3)sc2Cl)cn1 [Compound 120c] | 239
O=C(Nc1cc(F)c(=O)n(CC(F)F)c1)c1cc(C#CC2COC2)cs1 [Compound 73c] | 2930
Cc1nc2cc(C#Cc3cc(C(=O)Nc4cc(F)c(=O)n(CC(F)F)c4)sc3Cl)ccc2[nH]1 [Compound 141c] | 59.8

Molecular target: T1, FL-SMARCA2 (full-length human SMARCA2 isoform 1) (Homo sapiens, UniProt P51531)
T1 construct: FLAG tag (YKDDDDK) (C); made in house; host or cells: Sf21 insect cells (baculovirus, pFastBacI)
Assay: SMARCA2 ATPase activity assay (ADP-Glo, chicken mononucleosome substrate)
Type: biochemical
Details: Table 3c.1; ATPase assay, enzyme 5 nM, ATP 250 uM, chicken mononucleosome 10 nM, 30 min preincubation

T1 sequence (P51531 with tags, fused parts or gaps): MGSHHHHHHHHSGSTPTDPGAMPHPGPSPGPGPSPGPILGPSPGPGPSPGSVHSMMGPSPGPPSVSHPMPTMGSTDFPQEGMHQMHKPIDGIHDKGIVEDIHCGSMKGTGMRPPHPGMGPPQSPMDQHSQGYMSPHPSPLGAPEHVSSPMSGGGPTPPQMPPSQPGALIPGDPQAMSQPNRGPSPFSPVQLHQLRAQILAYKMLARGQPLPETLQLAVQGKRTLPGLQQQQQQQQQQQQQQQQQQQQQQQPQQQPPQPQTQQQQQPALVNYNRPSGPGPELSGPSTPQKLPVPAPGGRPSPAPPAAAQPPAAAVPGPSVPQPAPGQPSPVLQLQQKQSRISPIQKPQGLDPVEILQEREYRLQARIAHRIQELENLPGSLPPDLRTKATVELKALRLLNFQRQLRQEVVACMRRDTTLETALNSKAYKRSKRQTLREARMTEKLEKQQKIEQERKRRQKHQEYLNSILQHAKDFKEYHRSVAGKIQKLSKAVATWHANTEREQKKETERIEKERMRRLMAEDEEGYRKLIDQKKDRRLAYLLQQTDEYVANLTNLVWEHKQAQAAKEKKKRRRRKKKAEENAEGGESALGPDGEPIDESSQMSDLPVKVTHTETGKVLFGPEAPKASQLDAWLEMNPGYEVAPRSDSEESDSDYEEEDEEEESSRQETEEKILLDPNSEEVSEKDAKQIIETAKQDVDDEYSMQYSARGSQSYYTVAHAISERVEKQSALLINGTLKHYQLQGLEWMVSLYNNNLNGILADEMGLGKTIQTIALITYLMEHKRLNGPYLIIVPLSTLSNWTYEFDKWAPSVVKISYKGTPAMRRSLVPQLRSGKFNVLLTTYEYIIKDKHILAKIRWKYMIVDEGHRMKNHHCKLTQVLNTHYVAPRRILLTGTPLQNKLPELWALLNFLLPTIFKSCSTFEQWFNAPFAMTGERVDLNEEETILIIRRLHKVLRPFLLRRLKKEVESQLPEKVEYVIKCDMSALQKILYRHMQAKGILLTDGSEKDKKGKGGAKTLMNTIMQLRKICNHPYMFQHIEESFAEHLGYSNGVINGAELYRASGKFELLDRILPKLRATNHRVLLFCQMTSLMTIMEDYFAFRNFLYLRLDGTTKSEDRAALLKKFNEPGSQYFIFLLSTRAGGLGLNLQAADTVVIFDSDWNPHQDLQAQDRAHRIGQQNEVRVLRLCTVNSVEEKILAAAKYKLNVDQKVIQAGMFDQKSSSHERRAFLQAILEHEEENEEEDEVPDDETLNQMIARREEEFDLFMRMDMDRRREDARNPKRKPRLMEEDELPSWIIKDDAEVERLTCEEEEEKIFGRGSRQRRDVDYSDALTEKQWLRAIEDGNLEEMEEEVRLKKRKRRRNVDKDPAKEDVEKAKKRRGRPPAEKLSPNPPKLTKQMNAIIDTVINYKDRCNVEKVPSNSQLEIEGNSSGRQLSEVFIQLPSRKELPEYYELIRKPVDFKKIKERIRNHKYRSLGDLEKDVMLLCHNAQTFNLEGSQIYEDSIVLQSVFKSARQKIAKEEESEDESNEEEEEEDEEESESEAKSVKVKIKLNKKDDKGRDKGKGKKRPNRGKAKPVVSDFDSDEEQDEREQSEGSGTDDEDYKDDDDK

Compound | IC50 [nM]
O=C(Nc1cc(F)c(=O)n(CC(F)F)c1)c1cc(C#Cc2c[nH]cn2)c(Cl)s1 [Compound 113c] | 34.5
CNC(=O)c1cccc(C#Cc2cc(C(=O)Nc3cc(F)c(=O)n(CC(F)F)c3)sc2Cl)c1 [Compound 86c] | 17.2
Cc1nc(C#Cc2cc(C(=O)Nc3cc(F)c(=O)n(CC(F)F)c3)sc2Cl)cs1 [Compound 61c] | 26.7
O=C(Nc1ccc(=O)n(CC(F)F)c1)c1cc(F)c(Cl)s1 [Compound 45c] | 98.1
Cc1cnc(C#Cc2cc(C(=O)Nc3cc(F)c(=O)n(CC(F)F)c3)sc2Cl)o1 [Compound 71c] | 92
CN1CCn2cc(C#Cc3cc(C(=O)Nc4cc(F)c(=O)n(CC(F)F)c4)sc3Cl)nc2C1 [Compound 146c] | 9540
CCn1cc(C#Cc2cc(C(=O)Nc3cc(F)c(=O)n(CC(F)F)c3)sc2Cl)cn1 [Compound 54c] | 45.2
COc1cccc(C#Cc2cc(C(=O)Nc3cc(F)c(=O)n(CC(F)F)c3)sc2Cl)c1 [Compound 42c] | 203
O=C1CC(C#Cc2cc(C(=O)Nc3cc(F)c(=O)n(CC(F)F)c3)sc2Cl)CN1 (stereo not drawn) [Compound 116c] | 206
O=C(Nc1cc(F)c(=O)n(CC(F)F)c1)c1cc(C#CC2CCOCC2)c(Cl)s1 [Compound 22c] | 30.1
NC(=O)Cn1cc(C#Cc2cc(C(=O)Nc3cc(F)c(=O)n(CC(F)F)c3)sc2Cl)cn1 [Compound 120c] | 90.9
O=C(Nc1cc(F)c(=O)n(CC(F)F)c1)c1cc(C#CC2COC2)cs1 [Compound 73c] | 847
Cc1nc2cc(C#Cc3cc(C(=O)Nc4cc(F)c(=O)n(CC(F)F)c4)sc3Cl)ccc2[nH]1 [Compound 141c] | 28

Same assay, conditions: Table 3d.1; ATPase assay, enzyme 5 nM, ATP 250 uM, chicken mononucleosome 10 nM, 30 min preincubation; read-out: FL-SMARCA2 IC>50

Compound | IC50 [nM]
O=C(Nc1cc(F)c(=O)n(CC(F)F)c1)c1cc(C#C[C@H]2CCC[C@H](O)C2)c(Cl)s1 [Compound 129d] | 58.4
Cc1cc(C#Cc2cc(C(=O)Nc3cc(C#N)c(=O)n(CC(F)F)c3)sc2Cl)sn1 [Compound 92d] | 31.3

Tested on: A549 cells
Assay: High-throughput proliferation (HTP) assay for A549 cells (CellTiter-Glo, 7 days)
Type: cell-based
Details: Homo sapiens, 168 h, read-out: A549 SMARCA2 IC50
Summary of the method: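 A549 cells plated at 62.5 cells/well in F12K + 10% HI-FBS onto pre-dispensed compound, grown 7 days at 37° C., 5% CO2. Viability by CellTiter-Glo luminescence after 30 min at RT; EC50/IC50 from DMSO (0%) and 10 μM Doxorubicin (100%) inhibition controls.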

Compound | IC50 [nM]
O=C(Nc1cc(F)c(=O)n(CC(F)F)c1)c1cc(C#Cc2c[nH]cn2)c(Cl)s1 [Compound 113c] | 4030
CNC(=O)c1cccc(C#Cc2cc(C(=O)Nc3cc(F)c(=O)n(CC(F)F)c3)sc2Cl)c1 [Compound 86c] | 1730
Cc1nc(C#Cc2cc(C(=O)Nc3cc(F)c(=O)n(CC(F)F)c3)sc2Cl)cs1 [Compound 61c] | 1510
O=C(Nc1ccc(=O)n(CC(F)F)c1)c1cc(F)c(Cl)s1 [Compound 45c] | 4260
Cc1cnc(C#Cc2cc(C(=O)Nc3cc(F)c(=O)n(CC(F)F)c3)sc2Cl)o1 [Compound 71c] | 1950
CN1CCn2cc(C#Cc3cc(C(=O)Nc4cc(F)c(=O)n(CC(F)F)c4)sc3Cl)nc2C1 [Compound 146c] | > 10000
CCn1cc(C#Cc2cc(C(=O)Nc3cc(F)c(=O)n(CC(F)F)c3)sc2Cl)cn1 [Compound 54c] | 1920
COc1cccc(C#Cc2cc(C(=O)Nc3cc(F)c(=O)n(CC(F)F)c3)sc2Cl)c1 [Compound 42c] | 5080
O=C1CC(C#Cc2cc(C(=O)Nc3cc(F)c(=O)n(CC(F)F)c3)sc2Cl)CN1 (stereo not drawn) [Compound 116c] | 3790
O=C(Nc1cc(F)c(=O)n(CC(F)F)c1)c1cc(C#C[C@H]2CCC[C@H](O)C2)c(Cl)s1 [Compound 129d] | 2170
Cc1cc(C#Cc2cc(C(=O)Nc3cc(C#N)c(=O)n(CC(F)F)c3)sc2Cl)sn1 [Compound 92d] | 1990
O=C(Nc1cc(F)c(=O)n(CC(F)F)c1)c1cc(C#CC2CCOCC2)c(Cl)s1 [Compound 22c] | 664
NC(=O)Cn1cc(C#Cc2cc(C(=O)Nc3cc(F)c(=O)n(CC(F)F)c3)sc2Cl)cn1 [Compound 120c] | > 10000
O=C(Nc1cc(F)c(=O)n(CC(F)F)c1)c1cc(C#CC2COC2)cs1 [Compound 73c] | 6010
Cc1nc2cc(C#Cc3cc(C(=O)Nc4cc(F)c(=O)n(CC(F)F)c4)sc3Cl)ccc2[nH]1 [Compound 141c] | 6020

Tested on: H358 cells
Assay: High-throughput proliferation (HTP) assay for H358 cells (CellTiter-Glo, 7 days)
Type: cell-based
Details: Homo sapiens, NCI-H358, 168 h, read-out: H358 SMARCA2 IC50
Description: Thawing vials: H358 cells (ATCC #CRL-5807™) were thawed from a cryovial containing approximately 1.6×10^6 cells frozen in 70% RPMI 1640 medium, 20% HI-FBS and 10% DMSO. Cells were thawed by submerging the bottom half of the vial in a 37° C. water bath and gently flicked until almost thawed. The cells were removed and transferred into a 15 mL conical tube containing 9 mL RPMI 1640 medium+10% HI-FBS and then centrifuged 200×g for 4 min before drawing off the media without disturbing the cell pellet to remove the DMSO. The cells were resuspended again in 15 mL of RPMI 1640 fresh complete media+10% HI-FBS and grown up in a T75 flask at 37° C. with 5% CO2 Incubator. Viability was measured to obtain baseline.
Preparing frozen stock vials: Cell density was counted in a stock flask. The culture was transferred to a 50 mL conical tube and spun down to remove medium, and then resuspend at 1-2×10^6 cells/mL in complete medium containing 10% DMSO and transferred to a 1 mL per vial.
Routine subculture: Sub-confluent cultures (70-80%) were split every 4 days, seeding out at 1-2×10^6 cells/75 cm^2.
Day 0: Assay ready plates were prepared by dispensing 50 nL of compound stock or DMSO in the appropriate wells of 384-well white CulturPlates using Echo550. Using the Multiflo, H358 cells at 50 μL/well were plated in RPMI 1640 complete media+10% HI-FBS+1% pen/strep at cell density determined [20,000 cells/mL (1,000 cells/well)] from growth curve. Treated cells were inclubated at 37° C., 5% CO2, relative humidity >90% for 7 days. CellTiter-Glo (CTG) ATP detection reagent was prepared according to manufacturer's specifications. Cell assay plates were removed from incubator and bring to room temperature (RT).
Using the MultiDrop liquid handler, 30 μL of CTG were added per well. Plates were placed on the multidrop dispenser shake for 5 seconds at RT. Plates were incubated for 30 minutes in the dark at RT before measuring luminescence using the Envison2104.
Data analysis: Using the DMSO control wells as the 0% inhibition (high signal) control and the 10 uM Doxorubicin control wells as the 100% inhibition (low signal) control, percent inhibition EC50s (inflection point) and IC50s were calculated for the compound dose responses.

Compound | IC50 [nM]
O=C(Nc1cc(F)c(=O)n(CC(F)F)c1)c1cc(C#Cc2c[nH]cn2)c(Cl)s1 [Compound 113c] | > 10000
CNC(=O)c1cccc(C#Cc2cc(C(=O)Nc3cc(F)c(=O)n(CC(F)F)c3)sc2Cl)c1 [Compound 86c] | > 10000
Cc1nc(C#Cc2cc(C(=O)Nc3cc(F)c(=O)n(CC(F)F)c3)sc2Cl)cs1 [Compound 61c] | > 10000
O=C(Nc1ccc(=O)n(CC(F)F)c1)c1cc(F)c(Cl)s1 [Compound 45c] | > 10000
Cc1cnc(C#Cc2cc(C(=O)Nc3cc(F)c(=O)n(CC(F)F)c3)sc2Cl)o1 [Compound 71c] | > 10000
CN1CCn2cc(C#Cc3cc(C(=O)Nc4cc(F)c(=O)n(CC(F)F)c4)sc3Cl)nc2C1 [Compound 146c] | > 10000
CCn1cc(C#Cc2cc(C(=O)Nc3cc(F)c(=O)n(CC(F)F)c3)sc2Cl)cn1 [Compound 54c] | > 10000
COc1cccc(C#Cc2cc(C(=O)Nc3cc(F)c(=O)n(CC(F)F)c3)sc2Cl)c1 [Compound 42c] | > 10000
O=C1CC(C#Cc2cc(C(=O)Nc3cc(F)c(=O)n(CC(F)F)c3)sc2Cl)CN1 (stereo not drawn) [Compound 116c] | > 10000
O=C(Nc1cc(F)c(=O)n(CC(F)F)c1)c1cc(C#C[C@H]2CCC[C@H](O)C2)c(Cl)s1 [Compound 129d] | > 10000
Cc1cc(C#Cc2cc(C(=O)Nc3cc(C#N)c(=O)n(CC(F)F)c3)sc2Cl)sn1 [Compound 92d] | > 10000
O=C(Nc1cc(F)c(=O)n(CC(F)F)c1)c1cc(C#CC2CCOCC2)c(Cl)s1 [Compound 22c] | > 10000
NC(=O)Cn1cc(C#Cc2cc(C(=O)Nc3cc(F)c(=O)n(CC(F)F)c3)sc2Cl)cn1 [Compound 120c] | > 10000
O=C(Nc1cc(F)c(=O)n(CC(F)F)c1)c1cc(C#CC2COC2)cs1 [Compound 73c] | > 10000
Cc1nc2cc(C#Cc3cc(C(=O)Nc4cc(F)c(=O)n(CC(F)F)c4)sc3Cl)ccc2[nH]1 [Compound 141c] | > 10000
